# Measured values as given in US20160120949A1, “USES OF IL-12 IN HEMATOPOIETIC IMMUNOTHERAPY (HIT)” (Neumedicines, Inc., priority 2014, published 2016).
# Counter-ions that a name gives are not always drawn.
# Assays:
# [1] = tested on: Irradiated, Unsupported Rhesus Monkeys; test: Radiomitigation study in myeloablated, lethally irradiated, unsupported nonhuman primates; type: in vivo
# Method: FIG. 3: Kaplan-Meier Survival Curves of Irradiated, Unsupported Monkeys Treated with HemaMax™. Pooled HemaMax™ dosing group is shown. No antibiotics were used during the study. One animal with a broken tooth was excluded from the study because of an unrelated death to the study. p<0.05 pooled treatment groups.
# FIGS. 4A-4B: Leukocyte (A) and Thrombocyte (B) Counts in Irradiated, Unsupported Rhesus Monkeys Treated With HemaMax™. Three analyses were conducted to assess differences in blood cell counts during the study period.
# FIG. 4 describes […] Counts in Irradiated, Unsupported Rhesus Monkeys Treated With HemaMax™. Three analyses were conducted to assess differences in blood cell counts during the study period.
# [2] = tested on: non-human primates (rhesus monkeys); test: Pharmacodynamic response (IFN-γ) in non-human primates in vitro and in vivo; settings: both in vitro and in vivo
# human immune cells = test: Pharmacodynamic response (IFN-γ) in human immune cells in vitro; type: cell-based
# [3] = infusion time beyond 60 minutes; cited from earlier work
# [4] = cited from earlier work
# [5] = controlled room temperature 20° C. to 25° C.; cited from earlier work
# [6] = cited from earlier work; remark: listed apart in the source
# Lin-IL-12Rβ2-cells = test: Megacult colony culture with and without IL-12; type: cell-based; settings: megacult medium, 5000 cells/slide
# Method: FIG. 7: Lin-IL-12Rβ2-cells were plated in megacult medium at 5000 cells/slide with and without IL-12.
# By way of example, FIG. 7 describes Lin-IL-12RB2-cells were plated in megacult medium at 5000 cells/slide with and without IL-12.
# EL4 lymphoma tumor model = test: Tumor volume after radiation (625 rad), EL4 lymphoma tumor model; type: in vivo, mice; settings: 625 rad day 1 and second dose day 22, pre, post and pre-post radiation dosing groups, endpoint of tumor volume evaluation
# Text: (§1) FIGS. 2A-2B: Relative Changes in Tumor Volumes for Vehicle and rMuIL-12 Treatment Groups Following Radiation (625 rad). Changes in tumor volumes over the course of the experiment are shown for the EL4 lymphoma tumor model (A) and the Lewis Lung cancer tumor model (B). Mice in both tumor models were given 625 rad on day 1. Mice in both tumor models were given a second dose of radiation on day 22 following the initial radiation dose.
# (§2) FIG. 2 A-B describe Relative Changes in Tumor Volumes for Vehicle and rMuIL-12 Treatment Groups Following Radiation (625 rad). Changes in tumor volumes over the course of the experiment are shown for the EL4 lymphoma tumor model (a) and the Lewis Lung cancer tumor model (b). Mice in both tumor models were given 625 rad on day 1. Mice in both tumor models were given a second dose of radiation on day 22 following the initial radiation dose.
# Lewis Lung tumor = Lewis Lung tumor model with two rounds of gemcitabine monotherapy, tumor volume; type: in vivo, mouse; settings: gemcitabine 6.6 mg IP twice, one week apart; differences not statistically significant
# Method: The study evaluate the effect of rMuIL-12 on tumor growth in a mouse chemotherapy model was followed up with a second study to examine the growth in the same Lewis Lung model when gemcitabine was used as monotherapy and administered two times, one week apart. rMuIL-12 was also administered as pre-dosing and post-dosing, as described above, and also with a 24 hour post group and on the same day as chemotherapy administration. rMuIL-12 was administered at either both weeks of chemotherapy or only the first week. There were five groups with n=5 for each group. These groups are described below: Chemotherapy once weekly: Gemcitabine only, administered IP, 6.6 mg rMuIL-12 given weekly, three schedules: 24 hours pre-chemotherapy (Pre); Same day as chemotherapy (SD); 24 hours post chemotherapy (Post1=24 hrs-post; Post2=48 hrs-post).
# By way of example, FIG. 10 describes Lewis Lung Tumor Volume of Mice Under Monotherapy With Gemcitabine Receiving rMuIL-12. Day 0 is the time of the first chemotherapy. The second chemotherapy administration took place at day 7. […] The differences in growth among groups were not statistically significant.
# [7] = tested on: neutrophils, red blood cells and platelets; test: Blood recovery after myelosuppressive radiation (625 rad), EL4 lymphoma tumor model; type: in vivo, mice; settings: days 14-21
# Text: (§3) FIGS. 1A-1B: Blood Recovery Profiles for Vehicle and rMuIL-12 Administered Before and After Myelosuppresive Radiation (625 rad). Blood cell recovery profiles are shown for the EL4 lymphoma tumor model (A) and the Lewis lung cancer model (B) for neutrophils, red blood cells and platelets. Pre-radiation blood values reflect an average of all animals in both groups before radiation and tumor inoculation. The normal threshold value for murine blood cell counts is indicated by the dashed line.
# (§4) Platelet recovery profiles are shown for the EL4 lymphoma tumor model (a) and the Lewis lung cancer model (b).
# femoral bone marrow = test: Hematopoietic recovery in irradiated mice (TBI 8.0 Gy), femoral bone marrow IHC for IL-12Rβ2; type: in vivo; settings: 20 ng/mouse subcutaneously post irradiation, 12 days after irradiation
# Method: FIGS. 6A-6F: Murine IL-12 Promotes Hematopoietic Recovery in Irradiated Mice. Representative sections of femoral bone marrow from non-irradiated, untreated mice that were stained for IL-12Rβ2 are shown in (A). Animals were subjected to TBI (8.0 Gy) and subsequently received vehicle or rMuIL-12 (20 ng/mouse) subcutaneously at the indicated times post irradiation (B-F). Femoral bone marrow was immunohistochemically stained for IL-12Rβ2 (orange color) 12 days after irradiation. […] Magnification=100×.
# By way of example, FIG. 6 describes Murine IL-12 Promotes Hematopoietic Recovery in Irradiated Mice. Representative sections of femoral bone marrow from non-irradiated, untreated mice that were stained for IL-12Rβ2 (orange color) are shown in (a). Animals were subjected to TBI (8.0 Gy) and subsequently received vehicle or rMuIL-12 (20 ng/mouse) subcutaneously at the indicated times post irradiation (b-f). Femoral bone marrow was immunohistochemically stained for IL-12Rβ2 (orange color) 12 days after irradiation.
# [8] = tested on: Lewis Lung cancer tumor model; test: Tumor volume after radiation (625 rad), Lewis Lung cancer tumor model; type: in vivo, mice; settings: 625 rad day 1 and second dose day 22, rMuIL-12 post-treatment, endpoint of tumor growth evaluation
# Text: as §1, §2
# [9] = tested on: neutrophils, red blood cells and platelets; test: Blood recovery after myelosuppressive radiation (625 rad), Lewis lung cancer model; type: in vivo, mice; settings: days 14-21
# Text: as §3, §4
# platelets = test: Chemotherapy induced thrombocytopenia (CIT) model, gemcitabine/carboplatin (GC) chemotherapy, platelet counts; type: in vivo, mice; settings: for % platelet counts from baseline (average and standard deviation): day 8
# Method: The effect of rMuIL-12 administration in conjunction with gemcitabine/carboplatin chemotherapy (GC) (6.6 mg gemcitabine dose+2 mg carboplatin) was examined. Mice received GC intravenously on day 0.
# Pre-dosing: rMuIL-12 was given 24 hours before chemotherapy treatment (n=18)
# Post-dosing: rMuIL-12 was administered 48 hours after chemotherapy treatment (n=19) Pre/post dosing: rMuIL-12 was given 24 hours before chemotherapy and 48 hours after chemotherapy (n=13)
# Averages of % platelet counts from baseline and standard deviations for each group at day 8 were: […]
# Lewis Lung tumor cells = test: Lewis Lung mouse tumor model with concomitant GC chemotherapy, tumor volume; type: in vivo; settings: 20 ng subcutaneously before, after or before/after GC; differences not statistically significant
# Method: The effect of rMuIL-12 administration on tumor growth in a mouse tumor chemotherapy model was evaluated. The tumor model used Lewis Lung tumor cells that were subcutaneously injected (100,000 cells) in each mouse. At a given time after tumor inoculation, mice were treated with chemotherapy. The gemcitabine/carboplatin chemotherapy regimen as described above was used and administered IP. rMuIL-12 was administered subcutaneously (20 ng) before, after, or before/after chemotherapy as indicated below.
# Pre-dosing (n=16): rMuIL-12 was given 24 hours before chemotherapy treatment,
# Post-dosing (n=16): rMuIL-12 was administered 48 hours after chemotherapy treatment
# Pre/post dosing (n=16): rMuIL-12 was given 24 hours before chemotherapy and 48 hours after chemotherapy. Control (n=16)
# Tumor volume was monitored over time to compared tumor growth in the control compared to rMuIL-12 treated mice. […] The differences among groups in tumor growth were not statistically significant.
# [10] = days 12 and 14, 100 ng/kg and 250 ng/kg doses
# [11] = rMuIL-12 before and after 625 rad
molecule,measurement,setting,value
"HemaMax: recombinant human IL-12, heterodimeric glycoprotein of p35 and p40 subunits, 503 amino acids, produced in CHO cells",numbers of leukocytes as compared to vehicle,[1]; [10],significantly higher numbers
same,numbers of thrombocytes as compared to vehicle,[1]; [10],significantly higher numbers
same,monkeys that required a platelet transfusion,"[1]; lethal radiation NHP study, vehicle 80%",25%
same,platelet and WBC nadirs,[1]; lethally irradiated NHP,attenuates
same,survival,"[1]; lethally irradiated NHP, no antibiotics, pooled dosing groups",increases survival
same,pharmacodynamic response (interferon-γ [IFN-γ]),[2],potently elicits
same,pharmacodynamic response (interferon-γ [IFN-γ]),human immune cells,potently elicits
"Nc1ccn([C@@H]2O[C@H](CO)[C@@H](O)C2(F)F)c(=O)n1 [Gemzar, 2′-deoy-2′,2′-difluorocytidine monohydrochloride (β-isomer)]",toxicity on prolongation of infusion time beyond 60 minutes,[3],minutes has been shown to increase toxicity.
same,acute dermal irritation,[4]; animal studies,not been observed
same,"rabbits with drug-related systemic toxicities (death, hypoactivity, nasal discharge, shallow breathing) due to dermal absorption","[4]; rabbits, dermal",two of three
same,stability of prepared solutions,[5],24 h
same,maximum concentration upon reconstitution (solubility considerations),[6]; 0.9% Sodium Chloride Injection,40 mg/mL
same,solubility in ethanol and polar organic solvents,[6]; ethanol and polar organic solvents,practically insoluble in ethanol and polar organic
same,solubility in methanol,[6]; methanol,slightly soluble
same,solubility in water,[6]; water,soluble
"IL-12: heterodimeric cytokine comprising p40 and p35 subunits; species of the IL-12 used in the megacult culture not stated (protein, UniProt P29459 23-219; P29460 23-328, looked up) Interleukin-12 subunit alpha: RNLPVATPDPGMFPCLHHSQNLLRAVSNMLQKARQTLEFYPCTSEEIDHEDITKDKTSTVEACLPLELTKNESCLNSRETSFITNGSCLASRKTSFMMALCLSSIYEDLKMYQVEFKTMNAKLLMDPKRQIFLDQNMLAVIDELMQALNFNSETVPQKSSLEEPDFYKTKIKLCILLHAFRIRAVTIDRVMSYLNAS Interleukin-12 subunit beta: IWELKKDVYVVELDWYPDAPGEMVVLTCDTPEEDGITWTLDQSSEVLGSGKTLTIQVKEFGDAGQYTCHKGGEVLSHSLLLLHKKEDGIWSTDILKDQKEPKNKTFLRCEAKNYSGRFTCWWLTTISTDLTFSVKSSRGSSDPQGVTCGAATLSAERVRGDNKEYEYSVECQEDSACPAAEESLPIEVMVDAVHKLKYENYTSSFFIRDIIKPDPPKNLQLKPLKNSRQVEVSWEYPDTWSTPHSYFSLTFCVQVQGKSKREKKDRVFTDKTSATVICRKNASISVRAQDRYYSSSWSEWASVPCS",colony size in comparison to media alone,Lin-IL-12Rβ2-cells,larger colonies
"rMuIL-12: murine recombinant IL-12, the murine counterpart to HemaMax (protein, UniProt P43431 23-215; P43432 23-335, looked up) Interleukin-12 subunit alpha: RVIPVSGPARCLSQSRNLLKTTDDMVKTAREKLKHYSCTAEDIDHEDITRDQTSTLKTCLPLELHKNESCLATRETSSTTRGSCLPPQKTSLMMTLCLGSIYEDLKMYQTEFQAINAALQNHNHQQIILDKGMLVAIDELMQSLNHNGETLRQKPPVGEADPYRVKMKLCILLHAFSTRVVTINRVMGYLSSA Interleukin-12 subunit beta: MWELEKDVYVVEVDWTPDAPGETVNLTCDTPEEDDITWTSDQRHGVIGSGKTLTITVKEFLDAGQYTCHKGGETLSHSHLLLHKKENGIWSTEILKNFKNKTFLKCEAPNYSGRFTCSWLVQRNMDLKFNIKSSSSSPDSRAVTCGMASLSAEKVTLDQRDYEKYSVSCQEDVTCPTAEETLPIELALEARQQNKYENYSTSFFIRDIIKPDPPKNLQMKPLKNSQVEVSWEYPDSWSTPHSYFSLKFFVRIQRKKEKMKETEEGCNQKGAFLVEKTSTEVQCKGGNVCVQAQDRYYNSSCSKWACVPCRVRS",tumor growth % T/C,EL4 lymphoma tumor model,< 50%
same,tumor growth rate (tumor volume),Lewis Lung tumor,did not increase the tumor growth rate
same,platelet counts as compared to the vehicle control,[7]; 625 rad,statistically significant improvements
same,blood cell counts as compared to the vehicle control,[7]; [11],statistically significant improvements
same,hematopoietic recovery in femoral bone marrow,femoral bone marrow,hematopoietic reconstitution
same,tumor growth % T/C,[8],< 50%
same,platelet counts as compared to the vehicle control,[9]; 625 rad,statistically significant improvements
same,blood cell counts as compared to the vehicle control,[9]; [11],statistically significant improvements
same,animals with a decrease in platelets of more than 33%,platelets; all rMuIL-12 treated groups,0 out of 50
same,% platelet counts from baseline (average and standard deviation),platelets; Post-dosing: 48 hours after chemotherapy,110±37%
same,% platelet counts from baseline (average and standard deviation),platelets; Pre-dosing: 24 hours before chemotherapy,79±34%
same,% platelet counts from baseline (average and standard deviation),platelets; Pre/Post dosing: 24 hours before and 48 hours after chemotherapy,111±33%
same,mice with platelet levels that dropped one-third of baseline level or more,"platelets; rMuIL-12 prior to, after or both prior to and after chemotherapy, 8 days after chemotherapy",0%
same,tumor growth (tumor volume),Lewis Lung tumor cells,did not increase tumor growth
